In patent US20250339399A1, “SUPRAMOLECULAR SELF-ASSEMBLY SYSTEM” (Beijing Creatron Institute of Pharmaceutical Research Co., …, priority 2022, published 2025):
Structures can show the parent of a compound that is named as a salt. Where two headings read alike, the source gives them in different places. Blank lines part the entries; values can stand above or below the molecule they belong to.

Tests used:
[1] = human use, cited from earlier work
[2] = Guest molecule concentration after incubation in initial medium without polymer (Comparative Example 1); type: physicochemical; settings: 37° C., pH 6.8 phosphate buffer
Procedure, shortened: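 Dissolved guest content measured by HPLC of centrifuged supernatants (37° C., 13000 rpm, 5 min) sampled at 0.5 h, 3 h and 6 h. Incubation was polymer-free at 37° C.±0.5° C. in buffers of pH 2.0-7.4; nominal loading was set by maximum clinical dose.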

[3] = Binary supramolecular self-assembly systems of polymer and target: guest concentration over incubation time (Comparative Example 2); type: physicochemical; settings: for Concentration of guest molecule in solution / Times that of the initial medium: 6 h
Description: Experiments were conducted according to the steps in Comparative Example 1, and quantitative analysis was carried out using the analytical method for each target to investigate the regulation ability […] stacking.

[4] = cited from earlier work; for Sol / LogP: natural flavonoids (chalcone, dihydrochalcone class)
[5] = cited from earlier work

Molecule: C=C1C[C@@]23CC[C@H]4[C@@](C)(CCC[C@@]4(C)C(=O)O)[C@@H]2CC[C@]1(O[C@@H]1O[C@H](CO)[C@@H](O)[C@H](O[C@@H]2O[C@H](CO)[C@@H](O)[C@H](O)[C@H]2O)[C@H]1O[C@@H]1O[C@H](CO)[C@@H](O)[C@H](O)[C@H]1O)C3 [compound 307, Rebaudioside B]
Acceptable daily intake (ADI) ([1]; bw: body weight): 6 mg/kg bw/day

Molecule: CC1(C)[C@@H](O[C@H]2O[C@H](C(=O)O)[C@@H](O)[C@H](O)[C@H]2O[C@@H]2O[C@H](C(=O)O)[C@@H](O)[C@H](O)[C@H]2O)CC[C@]2(C)[C@H]3C(=O)C=C4[C@@H]5C[C@@](C)(C(=O)O)CC[C@]5(C)CC[C@@]4(C)[C@]3(C)CC[C@@H]12 [compound 314, Glycyrrhizic acid and its ammonium salt]
Acceptable daily intake (ADI) ([1]; bw: body weight): 2 mg/kg bw/day

Molecule: C=C1C[C@@]23CC[C@H]4[C@@](C)(CCC[C@@]4(C)C(=O)O[C@@H]4O[C@H](CO)[C@@H](O)[C@H](O)[C@H]4O)[C@@H]2CC[C@]1(O[C@@H]1O[C@H](CO)[C@@H](O)[C@H](O[C@@H]2O[C@H](CO)[C@@H](O)[C@H](O)[C@H]2O)[C@H]1O[C@@H]1O[C@@H](C)[C@H](O)[C@@H](O)[C@H]1O)C3 [compound 308, Rebaudioside C]
Acceptable daily intake (ADI) ([1]; bw: body weight): 6 mg/kg bw/day

Molecule: Neohesperidin dihydrochalcone [compound 310]
Acceptable daily intake (ADI) ([1]; bw: body weight): 3-5 mg/kg bw/day

Concentration of guest molecule measured after different incubated time ([2]; 0.5 h): 169.9 µg/mL
Concentration of guest molecule measured after different incubated time ([2]; 3 h): 126.7 µg/mL
Concentration of guest molecule measured after different incubated time ([2]; 6 h): 129.1 µg/mL
Concentration of the target in the solution measured after different incubation time ([3]; binary system with 0.5% polymer 101, incubation 0.5 h): 412.1 µg/mL
Concentration of the target in the solution measured after different incubation time ([3]; binary system with 0.5% polymer 101, incubation 3 h): 214.9 µg/mL
Concentration of the target in the solution measured after different incubation time ([3]; binary system with 0.5% polymer 101, incubation 6 h): 126.4 µg/mL
Concentration of the target in the solution measured after different incubation time ([3]; binary system with 0.5% polymer 102, incubation 0.5 h): 456.4 µg/mL
Concentration of the target in the solution measured after different incubation time ([3]; binary system with 0.5% polymer 102, incubation 3 h): 389.1 µg/mL
Concentration of the target in the solution measured after different incubation time ([3]; binary system with 0.5% polymer 102, incubation 6 h): 383.3 µg/mL
Concentration of the target in the solution measured after different incubation time ([3]; binary system with 0.5% polymer 103, incubation 0.5 h): 230.7 µg/mL
Concentration of the target in the solution measured after different incubation time ([3]; binary system with 0.5% polymer 103, incubation 3 h): 231.0 µg/mL
Concentration of the target in the solution measured after different incubation time ([3]; binary system with 0.5% polymer 103, incubation 6 h): 233.5 µg/mL
Concentration of the target in the solution measured after different incubation time ([3]; binary system with 0.5% polymer 106, incubation 0.5 h): 469.5 µg/mL
Concentration of the target in the solution measured after different incubation time ([3]; binary system with 0.5% polymer 106, incubation 3 h): 462.5 µg/mL
Concentration of the target in the solution measured after different incubation time ([3]; binary system with 0.5% polymer 106, incubation 6 h): 478.8 µg/mL
Concentration of the target in the solution measured after different incubation time ([3]; binary system with 0.5% polymer 107, incubation 0.5 h): 127.5 µg/mL
Concentration of the target in the solution measured after different incubation time ([3]; binary system with 0.5% polymer 107, incubation 3 h): 130.9 µg/mL
Concentration of the target in the solution measured after different incubation time ([3]; binary system with 0.5% polymer 107, incubation 6 h): 139.1 µg/mL
Concentration of the target in the solution measured after different incubation time ([3]; binary system with 0.5% polymer 110, incubation 0.5 h): 112.7 µg/mL
Concentration of the target in the solution measured after different incubation time ([3]; binary system with 0.5% polymer 110, incubation 3 h): 79.0 µg/mL
Concentration of the target in the solution measured after different incubation time ([3]; binary system with 0.5% polymer 110, incubation 6 h): 77.6 µg/mL
Concentration of guest molecule in solution ([3]; binary: 0.5% 102H): 383.3 µg/mL
Times that of the initial medium ([3]; binary: 0.5% 102H): 3.0 times
Concentration of guest molecule in solution ([3]; binary: 0.5% 103E5): 233.5 µg/mL
Times that of the initial medium ([3]; binary: 0.5% 103E5): 1.8 times
Molecule: O=C1C[C@@H](c2ccc(O)cc2)Oc2cc(O)cc(O)c21 [Naringenin]
solubility value given in Table 1 (basic information of natural flavonoids) ([4]; parent flavonoid of the class, value follows the class name): Naringenin (CAS 480-41) derivatives, EUF-0.58 mg/ml
LogP [5]: LogP 2.71

Molecule: Isoquercitrin [compound 304]
Acceptable daily intake (ADI) ([1]; bw: body weight): 3.3 mg/kg bw/day

Molecule: O=C(CCc1ccc(O)cc1)c1c(O)cc(O[C@@H]2O[C@H](CO)[C@@H](O)[C@H](O)[C@H]2O)cc1O [Trilobatin, trilobatin]
Sol ([4]; Table 1 basic information): 3.89 mg/mL

Molecule: C=C1C[C@@]23CC[C@H]4[C@@](C)(CCC[C@@]4(C)C(=O)O[C@@H]4O[C@H](CO)[C@@H](O)[C@H](O)[C@H]4O)[C@@H]2CC[C@]1(O[C@@H]1O[C@H](CO)[C@@H](O)[C@H](O)[C@H]1O[C@@H]1O[C@H](CO)[C@@H](O)[C@H](O)[C@H]1O)C3 [Stevioside]
Intrinsic solubility [4]: Intrinsic solubility: 6.7 mg/ml

Molecule: COc1ccc(CCC(=O)c2c(O)cc(O[C@@H]3O[C@H](CO)[C@@H](O)[C@H](O)[C@H]3O[C@@H]3O[C@@H](C)[C@H](O)[C@@H](O)[C@H]3O)cc2O)cc1O [Neosperidin dihydrochalcone, neohesperidin dihydrochalcone]
Sol ([4]; Table 1 basic information): 104.87 mg/mL

Molecule: COc1cc(-c2oc3cc(O)cc(O)c3c(=O)c2O)ccc1O [Isorhamnetin]
Intrinsic solubility (value in the class heading) ([4]; parent flavonoid of the class, Table 1 basic information): Isorhamnetin derivatives (0.45 mg/ml)

Molecule: COc1ccc([C@@H]2CC(=O)c3c(O)cc(O[C@@H]4O[C@H](CO)[C@@H](O)[C@H](O)[C@H]4O[C@@H]4O[C@@H](C)[C@H](O)[C@@H](O)[C@H]4O)cc3O2)cc1O [compound 318, Neohesperidin]
Acceptable daily intake (ADI) ([1]; bw: body weight): 5 mg/kg bw/day

Molecule: Myricitrin [compound 306]
Acceptable daily intake (ADI) ([1]; bw: body weight): 14 mg/kg bw/day

Molecule: O=C(CCc1ccc(O)c(O)c1)c1c(O)cc(O)cc1O [3-hydroxyphloretin, 3-(3,4-dihydroxyphenyl)-1-(2,4,6-trihydroxyphenyl)propan-1-one]
Sol ([4]; Table 1 basic information): 8.59 mg/mL

Molecule: O=C(O[C@@H]1Cc2c(O)cc(O)cc2O[C@@H]1c1cc(O)c(O)c(O)c1)c1cc(O)c(O)c(O)c1 [compound 303, (−)−Epigallocatechin 3-gallate]
Acceptable daily intake (ADI) [1]: 135-270 mg/person/ day mg/person/day

Molecule: O=C(OC[C@H]1O[C@@H](OC(=O)c2cc(O)c(O)c(OC(=O)c3cc(O)c(O)c(O)c3)c2)[C@H](OC(=O)c2cc(O)c(O)c(OC(=O)c3cc(O)c(O)c(O)c3)c2)[C@@H](OC(=O)c2cc(O)c(O)c(OC(=O)c3cc(O)c(O)c(O)c3)c2)[C@@H]1OC(=O)c1cc(O)c(O)c(OC(=O)c2cc(O)c(O)c(O)c2)c1)c1cc(O)c(O)c(OC(=O)c2cc(O)c(O)c(O)c2)c1 [compound 316, Tannic acid]
Acceptable daily intake (ADI) ([1]; bw: body weight): 15 mg/kg bw/day

Molecule: O=C(CCc1ccc(O)c(O)c1)c1c(O)cc(O)c([C@@H]2O[C@H](CO)[C@@H](O)[C@H](O)[C@H]2O)c1O [Aspalathin, 3-(3,4-dihydroxyphenyl)-1-{2,4,6-trihydroxy-3-[3,4,5-trihydroxy-6-(hydroxymethyl)oxo-2-yl]phenyl]propan-1-one]
LogP ([4]; Table 1 basic information): 0.83
Sol ([4]; Table 1 basic information): 36.12 mg/mL

Molecule: C=C1C[C@@]23CC[C@H]4[C@@](C)(CCC[C@@]4(C)C(=O)O)[C@@H]2CC[C@]1(O[C@@H]1O[C@H](CO)[C@@H](O)[C@H](O[C@@H]2O[C@H](CO)[C@@H](O)[C@H](O)[C@H]2O)[C@H]1O[C@@H]1O[C@H](CO)[C@@H](O)[C@H](O)[C@H]1O)C3 [Rebaudioside B, rebaudioside B]
Intrinsic solubility [4]: Intrinsic solubility: 7.98 mg/ml

Molecule: CC(=O)O[C@H]1[C@H](Oc2cc(O)c(C(=O)CCc3ccc(O)cc3)c(O)c2)O[C@H](CO)[C@@H](O)[C@@H]1O [Trilobatin 2″-acetate, [(2S,3R,4S,5S,6R)-(R)-2-[3,5-dihydroxy-4-[3-(4-hydroxyphenyl)propionyl]phenoxy]-4,5-dihydroxy-6-(hydroxymethyl)oxy-3-yl]acetate]
LogP ([4]; Table 1 basic information): 2.07
Sol ([4]; Table 1 basic information): 2.08 mg/mL

Molecule: O=c1cc(-c2ccc(O)c(O)c2)oc2cc(O)cc(O)c12 [Luteolin]
solubility value given in Table 1 (basic information of natural flavonoids) ([4]; parent flavonoid of the class, no unit printed in the heading): Luteolin (CAS: 491-70-3) derivatives-0.40

Molecule: O=c1c(O)c(-c2ccc(O)c(O)c2)oc2cc(O)cc(O)c12 [Quercetin]
Intrinsic solubility ([4]; parent flavonoid of the class, Table 1 basic information, unit not given): Quercetin (CAS 117-39-5) derivatives EUF (Intrinsic solubility: 1.11)

Molecule: O=C(CCc1ccc(O)cc1)c1c(O)cc(O)cc1O [Phloretin, 3-(4-hydroxyphenyl)-1-(2,4,6-trihydroxyphenyl)propan-1-one]
Sol ([4]; Table 1 basic information): 3.07 mg/mL

Molecule: C[C@@H]1O[C@@H](O[C@H]2[C@H](Oc3cc(O)c(C(=O)CCc4ccc(O)cc4)c(O)c3)O[C@H](CO)[C@@H](O)[C@@H]2O)[C@H](O)[C@H](O)[C@H]1O [Naringin dihydrochalcone, naringin dihydrochalcone]
LogP ([4]; Table 1 basic information): 0.90
Sol ([4]; Table 1 basic information): 6.78 mg/mL

Molecule: C=C1C[C@@]23CC[C@H]4[C@@](C)(CCC[C@@]4(C)C(=O)O[C@@H]4O[C@H](CO)[C@@H](O)[C@H](O)[C@H]4O)[C@@H]2CC[C@]1(O[C@@H]1O[C@H](CO)[C@@H](O)[C@H](O)[C@H]1O)C3 [Rubusoside, rubusoside]
Intrinsic solubility [4]: Intrinsic solubility: 0.39 mg/ml

Molecule: O=C(CCc1ccc(O)cc1)c1c(O)cc(O)cc1O[C@@H]1O[C@H](CO)[C@@H](O)[C@H](O)[C@H]1O [Phloridzin, 1-[2,4-dihydroxy-6-[(2S,3R,4S,5S,6R)-3,4,5-trihydroxy-6-(hydroxymethyl)oxo-2-yl]oxophenyl]-3-(4-hydroxyphenyl)propan-1-one]
Sol ([4]; Table 1 basic information): 3.89 mg/mL
